Assay results reported in US8143259B2, “Cold menthol receptor antagonists” (Janssen Pharmaceutica, NV, priority 2008, dated 2012).
“And” between values parts separate entries of the source, which are not always exact repeats. Identical values can stand only once.

Molecular target: T1, canine TRPM8 (Canis lupus familiaris, UniProt Q1A7N1)
T1 construct: expressed in transfected cells
Assay: In Vitro Canine TRPM8 Functional Assay (Ca2+ fluorescence, icilin activation)
Assay type: cell-based
Settings: for % Inh @ 0.2 μM: 0.2 μM compound; for % Inh @ 0.5 μM: 0.5 μM compound; for IC50: HEK293 cells stably expressing canine TRPM8, icilin activation, Ca2+ fluorescence; for inhibition at 0.5 µM: HEK293, 0.5 μM compound; for inhibition at 0.2 µM: HEK293, 0.2 μM compound
How it was run: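 HEK293 cells stably expressing canine TRPM8, loaded with Calcium 3 dye; compounds added 5 min before icilin at a concentration giving ~80% maximal response. Peak icilin-evoked Ca2+ fluorescence, basal-subtracted and normalised to maximal response, fitted by sigmoidal nonlinear regression; quadruplicate wells.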

[1] = canine TRPM8 HEK293, icilin, 0.2 µM
[2] = canine TRPM8 HEK293, icilin, 0.5 µM

T1 sequence (Q1A7N1 1-1104): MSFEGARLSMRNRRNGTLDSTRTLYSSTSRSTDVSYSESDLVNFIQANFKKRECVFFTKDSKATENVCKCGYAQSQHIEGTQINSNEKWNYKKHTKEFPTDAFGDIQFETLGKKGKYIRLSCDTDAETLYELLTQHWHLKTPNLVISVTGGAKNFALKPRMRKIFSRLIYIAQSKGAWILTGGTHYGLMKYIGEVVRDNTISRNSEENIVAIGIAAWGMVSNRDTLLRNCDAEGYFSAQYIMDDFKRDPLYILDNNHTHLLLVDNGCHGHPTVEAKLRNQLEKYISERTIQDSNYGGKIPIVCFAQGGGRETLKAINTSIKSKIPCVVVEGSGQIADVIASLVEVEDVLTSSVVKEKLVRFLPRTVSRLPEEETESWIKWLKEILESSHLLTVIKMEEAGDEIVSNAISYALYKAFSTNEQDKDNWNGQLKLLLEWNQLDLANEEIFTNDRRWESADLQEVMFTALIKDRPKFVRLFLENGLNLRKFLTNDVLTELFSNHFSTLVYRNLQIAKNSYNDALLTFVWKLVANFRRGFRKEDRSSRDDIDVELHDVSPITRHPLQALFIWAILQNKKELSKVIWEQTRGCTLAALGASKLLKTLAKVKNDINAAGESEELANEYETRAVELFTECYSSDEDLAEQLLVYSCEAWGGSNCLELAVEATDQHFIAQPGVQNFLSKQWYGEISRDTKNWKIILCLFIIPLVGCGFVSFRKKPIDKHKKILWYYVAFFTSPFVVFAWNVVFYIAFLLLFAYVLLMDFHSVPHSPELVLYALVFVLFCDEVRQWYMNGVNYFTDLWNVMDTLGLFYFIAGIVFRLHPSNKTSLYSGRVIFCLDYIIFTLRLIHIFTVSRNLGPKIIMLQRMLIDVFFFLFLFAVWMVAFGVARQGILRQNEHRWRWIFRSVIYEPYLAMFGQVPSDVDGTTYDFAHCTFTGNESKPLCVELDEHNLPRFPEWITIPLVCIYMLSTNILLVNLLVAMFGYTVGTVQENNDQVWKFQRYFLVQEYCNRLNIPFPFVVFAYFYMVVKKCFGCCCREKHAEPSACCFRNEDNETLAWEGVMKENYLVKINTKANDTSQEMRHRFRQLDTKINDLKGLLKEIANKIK

IC50	inhibition at 0.2 µM (canine TRPM8 HEK293, icilin)	Structure (SMILES)	other results
81.7 nM		COc1ccccc1C1CCCN1C(=O)C(Nc1ccc(F)cc1F)c1ccc(Cl)cc1 (stereo not shown) [Cpd 124]	inhibition at 0.5 µM (canine TRPM8 HEK293, icilin): 98%
44 nM	98%	O=C(C(Nc1ccccc1F)c1ccc(C(F)(F)F)cc1)N1CCCC1c1cncc(Br)c1 (stereo not shown) [Cpd 344]	
61 nM		O=C(C(Nc1cccc(F)c1F)c1ccc(Cl)cc1)N1CCCC1c1ccccc1Cl (single isomer, unassigned) [Cpd 166]	% Inh @ 0.5 μM [2]: 96%
14.9 nM		O=C(C(Nc1ccccc1)c1ccc(C(F)(F)F)cc1)N1CCCC1c1cccs1 (stereo not shown) [Cpd 24]	inhibition at 0.5 µM (canine TRPM8 HEK293, icilin): 102%
13 nM	102%	CCOC(=O)c1ccc(C(Nc2ccccc2F)C(=O)N2CCC[C@H]2c2ccccc2F)cc1 (mixture of isomers) [Cpd 182]	
7 nM	102%	O=C(C(Nc1ccccc1F)c1ccc(C(F)(F)F)cc1)N1CCCC1c1cccnc1 (stereo not shown) [Cpd 203]	
14 nM	96%	O=C(C(Nc1ccccc1F)c1ccc2c(c1)CCO2)N1CCC[C@H]1c1ccccc1F (mixture of isomers) [Cpd 286]	
126 nM		O=C(C(Nc1ccccc1F)c1ccc(Cl)cc1)N1Cc2cccc(F)c2C1 (stereo not shown) [Cpd 114]	inhibition at 0.5 µM (canine TRPM8 HEK293, icilin): 98%
30 nM		COc1ccccc1C1CCCN1C(=O)C(Nc1ccccc1F)c1ccc(Br)cc1 (single isomer, unassigned) [Cpd 176]	% Inh @ 0.2 μM [1]: 94%
105 nM		O=C(C(c1ccc(C(F)(F)F)cc1)N1CCc2ccccc21)N1Cc2ccccc2C1 (stereo not shown) [Cpd 230]	
69 nM	85%	COc1ccccc1C1CCCN1C(=O)C(Nc1ccccc1F)c1ccc(Br)cc1 (single isomer, unassigned) [Cpd 175]	
26 nM		O=C(C(Nc1cccc(F)c1F)c1ccc(Cl)cc1)N1CCCC1c1ccccc1F (single isomer, unassigned) [Cpd 164]	% Inh @ 0.5 μM [2]: 96%
4 nM		O=C(C(Nc1ccccc1F)c1ccc(C(F)(F)F)cc1)N1CCCC1c1cccc(F)c1 (single isomer, unassigned) [Cpd 187]	% Inh @ 0.2 μM [1]: 98%
200 nM		O=C(C(Nc1ccccc1)c1ccc(C(F)(F)F)cc1)N1CCCC1c1ccccc1F (single isomer, unassigned) [Cpd 47]	% Inh @ 0.5 μM [2]: 99.791%
40 nM	99%	COC(=O)c1cccc([C@@H]2CCCN2C(=O)C(Nc2ccccc2F)c2ccc(C(F)(F)F)cc2)c1 (mixture of isomers) [Cpd 347]	
35.6 nM	103%	O=C(C(Nc1cc(F)ccc1F)c1ccc(Cl)cc1)N1CCCC1c1ccccc1 (stereo not shown) [Cpd 173]	
130 nM		O=C(C(Nc1ccc(F)cc1)c1ccc(Cl)cc1)N1Cc2ccccc2C1 (stereo not shown) [Cpd 120]	inhibition at 0.5 µM (canine TRPM8 HEK293, icilin): 95%
8 nM	100%	O=C(C(Nc1ccccc1F)c1ccc(N2CCOCC2)nc1)N1CCC[C@H]1c1ccccc1F (mixture of isomers) [Cpd 358]	
91.7 nM		O=C(C(Nc1ccccc1)c1ccc(C(F)(F)F)cc1)N1CCCC1c1ccncc1 (stereo not shown) [Cpd 28]	inhibition at 0.5 µM (canine TRPM8 HEK293, icilin): 103%
416 nM		CC(C)(C)c1ccc(C(Nc2ccccc2)C(=O)N2CCCCC2Cc2ccccc2)cc1 (stereo not shown) [Cpd 14]	inhibition at 1 µM (HEK293, 1 μM compound, canine TRPM8 HEK293, icilin): 102%
316 nM		Cc1cccc2c1N(C(=O)C(Nc1ccccc1)c1ccc(C(F)(F)F)cc1)CC2 (stereo not shown) [Cpd 27]	inhibition at 0.5 µM (canine TRPM8 HEK293, icilin): 93.2%
3 nM	100%	CC(C)(C)c1ccc(C(Nc2ccccc2F)C(=O)N2CCC[C@H]2c2ccccc2F)cn1 (single isomer, unassigned) [Cpd 357]	
9 nM		O=C(C(Nc1ccccc1F)c1ccc(C(F)(F)F)cc1)N1CCCC1c1cccc(F)c1 (stereo not shown) [Cpd 132]	inhibition at 0.5 µM (canine TRPM8 HEK293, icilin): 99%
76 nM	92%	COC(=O)C1CCC(c2ccccc2)N1C(=O)C(Nc1ccccc1)c1ccc(Cl)cc1 (single isomer, unassigned) [Cpd 206]	
92 nM	83%	COC(=O)c1ccc(C2CCCN2C(=O)C(Nc2ccccc2F)c2ccc3c(c2)CCO3)cc1 (stereo not shown) [Cpd 351]	
5 nM		O=C(C(Nc1ccccc1F)c1ccc(C(F)(F)F)cc1)N1CCCC1c1ccccc1 (single isomer, unassigned) [Cpd 191]	% Inh @ 0.2 μM [1]: 100%
12 nM		O=C(C(Nc1c(F)cccc1F)c1ccc(Cl)cc1)N1CCCC1c1ccccc1 (stereo not shown) [Cpd 146]	inhibition at 0.5 µM (canine TRPM8 HEK293, icilin): 99%
12.3 nM	94%	O=C(C(Nc1ccccc1F)c1ccc2ncccc2c1)N1CCCC1c1ccccc1F (stereo not shown) [Cpd 248]	
78 nM		N#Cc1ccc(C(Nc2ccccc2F)C(=O)N2CCCC2c2ccccc2Cl)cc1 (stereo not shown) [Cpd 62]	inhibition at 0.5 µM (canine TRPM8 HEK293, icilin): 103%
16 nM		COc1ccccc1C1CCCN1C(=O)C(Nc1c(F)cccc1F)c1ccc(Cl)cc1 (stereo not shown) [Cpd 145]	inhibition at 0.5 µM (canine TRPM8 HEK293, icilin): 99%

More lines, now with the values behind:

Structure (SMILES)	IC50	inhibition at 0.2 µM (canine TRPM8 HEK293, icilin)	other results
O=C(C(Nc1ccccc1F)c1ccc(Br)cc1)N1CCCC1c1ccccc1F (single isomer, unassigned) [Cpd 160]	39 nM and 13 nM		% Inh @ 0.2 μM [1]: 87%; % Inh @ 0.5 μM [2]: 95%
O=C(C(c1ccc(C(F)(F)F)cc1)N1CCCc2ccccc21)N1CCCC1c1ccccc1F (mixture of isomers) [Cpd 292]			% Inh @ 0.2 μM (canine TRPM8 HEK293, icilin): 45%
O=C(C(Nc1c(F)cccc1F)c1ccc(Br)cc1)N1CCC[C@H]1c1ccccc1F (stereo partly shown) [Cpd 181]	5 nM	96%	
O=C(C(Nc1ccccc1)c1ccc(C(F)(F)F)cc1)N1CCCC1c1ccccc1C(F)(F)F (single isomer, unassigned) [Cpd 31]	48.5 nM		% Inh @ 0.5 μM [2]: 104.03%
COC(=O)c1ccc(C2CCCN2C(=O)C(Nc2ccccc2F)c2ccc(C(F)(F)F)cc2)cc1 (stereo not shown) [Cpd 220]	48 nM	96%	
Cn1cc(C(Nc2ccccc2F)C(=O)N2CCCC2c2ccccc2F)c2ccccc21 (racemic) [Cpd 250]			% Inh @ 0.2 μM (canine TRPM8 HEK293, icilin): 25%
O=C(C(Nc1ccc(F)cc1)c1ccc(C(F)(F)F)cc1)N1CCCC1c1ccccc1 (single isomer, unassigned) [Cpd 76]	101 nM		% Inh @ 0.5 μM [2]: 97%
Nc1ccc(C2CCCN2C(=O)C(Nc2ccccc2F)c2ccc(C(F)(F)F)cc2)cc1 (stereo not shown) [Cpd 266]	2 nM	100%	
COC(=O)C1CCC(c2ccccc2)N1C(=O)C(Nc1ccccc1F)c1ccc(Br)cc1 (stereo not shown) [Cpd 195]			% Inh @ 0.2 μM [1]: 32%
O=C(C(Nc1ccccc1F)c1ccc(C(F)(F)F)cc1)N1CCCC1c1cncc(Br)c1 (single isomer, unassigned) [Cpd 345]	44 nM	92%	
O=C(C(Nc1ccccc1)c1ccc(Cl)cc1)N1CCCC1c1ccccc1Cl (stereo not shown) [Cpd 84]	15 nM		inhibition at 0.5 µM (canine TRPM8 HEK293, icilin): 98%
O=C(C(Nc1ccccc1)c1ccc(C(F)(F)F)cc1)N1CCCC1c1ccccc1Cl (single isomer, unassigned) [Cpd 21]	175 nM		inhibition at 0.5 µM (canine TRPM8 HEK293, icilin): 103%
O=C(C(Nc1ccccc1F)c1cnc2ccccc2c1)N1CCCC1c1cccnc1 (single isomer, unassigned) [Cpd 298]			% Inh @ 0.2 μM (canine TRPM8 HEK293, icilin): 22%
O=C(C(Nc1ccc(F)cc1F)c1ccc(Cl)cc1)N1Cc2cccc(F)c2C1 (stereo not shown) [Cpd 127]	86.9 nM		inhibition at 0.5 µM (canine TRPM8 HEK293, icilin): 97%
O=C(C(Nc1ccccc1F)c1cncc2ccccc12)N1CCCC1c1ccccc1F (single isomer, unassigned) [Cpd 333]			% Inh @ 0.2 μM [1]: 62%
COc1ccccc1C1CCCN1C(=O)C(Nc1ccccc1F)c1cnc2ccccc2c1 (single isomer, unassigned) [Cpd 278]	31 nM and 36 nM		% Inh @ 0.2 μM [1]: 94% and 101%
O=C(C(Cc1c(F)cccc1F)c1ccc(C(F)(F)F)cc1)N1CCCC1c1ccccc1Cl (stereo not shown) [Cpd 267]	30 nM	98%	
O=C(C(Nc1ccccc1F)c1ccc(C(F)(F)F)cc1)N1CCCC1c1ccccc1Cl (single isomer, unassigned) [Cpd 189]	9 nM	98%	
O=C(C(Nc1c(F)cccc1F)c1ccc(Cl)cc1)N1CCCC1c1ccccc1Cl (stereo not shown) [Cpd 143]	25 nM		inhibition at 0.5 µM (canine TRPM8 HEK293, icilin): 101%
O=C(C(Nc1ccccc1)c1ccccc1Cl)N1CCCC1c1ccccc1Cl (mixture of isomers) [Cpd 362]			% Inh @ 0.5 μM (canine TRPM8 HEK293, icilin): 21.91%
O=C(C(Nc1ccccc1F)c1ccc(Br)cc1)N1CCCc2ccccc21 (stereo not shown) [Cpd 365]	30 nM	94%	
CC(C)(C)c1ccc(C(Nc2ccccc2F)C(=O)N2CCC[C@H]2c2ccccc2F)cn1 (mixture of isomers) [Cpd 355]	5 nM	100%	
O=C(C(Nc1cccc(F)c1F)c1ccc(Cl)cc1)N1CCCC1c1ccccc1F (single isomer, unassigned) [Cpd 163]	145 nM		inhibition at 0.5 µM (canine TRPM8 HEK293, icilin): 94%
CN(C)c1ccc(C2CCCN2C(=O)C(Nc2ccccc2F)c2ccc(Cl)cc2)cc1 (stereo not shown) [Cpd 272]	110 nM	96%	
Cc1ccccc1C1CCCN1C(=O)C(Nc1ccccc1)c1ccc(C(F)(F)F)cc1 (stereo not shown) [Cpd 32]	31.2 nM		inhibition at 0.5 µM (canine TRPM8 HEK293, icilin): 104%
CC(C)(C)c1ccc(C(Nc2ccccc2)C(=O)N2CCCC2c2ccccn2)cc1 (stereo not shown) [Cpd 54]			% Inh @ 0.5 μM [2]: 69.055%
O=C(C(Nc1ccccc1F)c1ccc(-c2ccccn2)cc1)N1CCCC1c1ccccc1Cl (single isomer, unassigned) [Cpd 339]	27 nM		% Inh @ 0.2 μM [1]: 97%
O=C(C(Nc1ccccc1)c1ccccn1)N1CCCC1c1ccccc1F (stereo not shown) [Cpd 217]			% Inh @ 0.2 μM [1]: 26%
Cc1c(C(Cc2ccccc2F)C(=O)N2CCCC2c2ccccc2F)sc2ccccc12 (mixture of isomers) [Cpd 177]			% Inh @ 0.2 μM (canine TRPM8 HEK293, icilin): 63%
